Test results from patent US7772241B2, “Variolin derivatives and their use as antitumor agents” (Pharma Mar S.A., priority 2001, dated 2010).
Where two headings read alike, the source gives them in different places. One block for each molecule: values may come before it.

How the values were obtained:
K-562 = assay: Inhibition of cells growth by colorimetric (SRB) assay, K-562; details: for GI50 / CC50: Homo sapiens, K562, 48 h; for GI50: read-out: K-562 GI50, SRB assay, 48 hours exposure; for CC50: read-out: K-562 LC50, SRB assay, 48 hours exposure; for K-562 TGI: SRB assay, 48 hours exposure
Outline: (§1)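 Human tumour cells seeded at 5×10^3/well in RPMI 1640 10% FBS, attached 18 h, then exposed 48 h to samples at 10 to 10^−8 μg/ml in DMSO/EtOH/PBS (0.5:0.5:99). Growth read by SRB staining after TCA fixation, OD 490 nm, triplicate wells; GI, TGI and LC derived.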

A-549 = assay: Inhibition of cells growth by colorimetric (SRB) assay, A-549; details: for GI50 / CC50: Homo sapiens, A549, 48 h
Outline: as §1

SK-MEL-28 = assay: Inhibition of cells growth by colorimetric (SRB) assay, SK-MEL-28; details: for GI50 / CC50: Homo sapiens, SK-MEL-28, 48 h; for GI50: read-out: MEL-28 GI50, SRB assay, 48 hours exposure; for CC50: read-out: MEL-28 LC50, SRB assay, 48 hours exposure; for MEL-28 TGI: SRB assay, 48 hours exposure
Outline: as §1

HT-29 = assay: Inhibition of cells growth by colorimetric (SRB) assay, HT-29; details: for GI50 / CC50: Homo sapiens, HT-29, 48 h
Outline: as §1

LoVo = assay: Inhibition of cells growth by colorimetric (SRB) assay, LoVo; details: for GI50 / CC50: Homo sapiens, LoVo, 48 h; for GI50: read-out: LOVO GI50, SRB assay, 48 hours exposure; for CC50: read-out: LOVO LC50, SRB assay, 48 hours exposure; for LOVO TGI: SRB assay, 48 hours exposure
Outline: as §1

LoVo-Dox = assay: Inhibition of cells growth by colorimetric (SRB) assay, LoVo-Dox; details: for GI50 / CC50: Homo sapiens, 48 h; for GI50: read-out: LOVO-DOX GI50, SRB assay, 48 hours exposure; for CC50: read-out: LOVO-DOX LC50, SRB assay, 48 hours exposure; for LOVO-DOX TGI: SRB assay, 48 hours exposure
Outline: as §1

DU-145 = assay: Inhibition of cells growth by colorimetric (SRB) assay, DU-145; details: for GI50 / CC50: Homo sapiens, DU-145, 48 h; for GI50: read-out: DU-145 GI50, SRB assay, 48 hours exposure; for CC50: read-out: DU-145 LC50, SRB assay, 48 hours exposure; for DU-145 TGI: SRB assay, 48 hours exposure
Outline: as §1

LNCaP = assay: Inhibition of cells growth by colorimetric (SRB) assay, LNCaP; details: for GI50 / CC50: Homo sapiens, LNCaP, 48 h; for GI50: read-out: LN-caP GI50, SRB assay, 48 hours exposure; for CC50: read-out: LN-caP LC50, SRB assay, 48 hours exposure; for LN-caP TGI: SRB assay, 48 hours exposure
Outline: as §1

SK-BR-3 = assay: Inhibition of cells growth by colorimetric (SRB) assay, SK-BR-3; details: for GI50 / CC50: Homo sapiens, SK-BR-3, 48 h; for GI50: read-out: SK-BR-3 GI50, SRB assay, 48 hours exposure; for CC50: read-out: SK-BR-3 LC50, SRB assay, 48 hours exposure; for SK-BR-3 TGI: SRB assay, 48 hours exposure
Outline: as §1

IGROV-1 = assay: Inhibition of cells growth by colorimetric (SRB) assay, IGROV-1; details: for GI50 / CC50: Homo sapiens, IGROV-1, 48 h; for GI50: read-out: IGROV GI50, SRB assay, 48 hours exposure; for CC50: read-out: IGROV LC50, SRB assay, 48 hours exposure; for IGROV TGI: SRB assay, 48 hours exposure
Outline: as §1

IGROV-ET = assay: Inhibition of cells growth by colorimetric (SRB) assay, IGROV-ET; details: for GI50 / CC50: Homo sapiens, 48 h; for GI50: read-out: IGROV-ET GI50, SRB assay, 48 hours exposure; for CC50: read-out: IGROV-ET LC50, SRB assay, 48 hours exposure; for IGROV-ET TGI: SRB assay, 48 hours exposure
Outline: as §1

HeLa = assay: Inhibition of cells growth by colorimetric (SRB) assay, HeLa; details: for GI50: Homo sapiens, HeLa, 48 h, read-out: HELA GI50, SRB assay, 48 hours exposure; for HELA TGI: SRB assay, 48 hours exposure
Description: (§2) The finality of these assays is to interrupt the growth of a “in vitro” tumor cell culture by means a continued exhibition of the cells to the sample to be testing.
(§3) This form of the assay employs 96 well cell culture microplates of 9 mm diameter (Faircloth, 1988; Mosmann, 1983). Most of the cell lines are obtained from American Type Culture Collection (ATCC) derived from different human cancer types.
(§4) Cells are maintained in RPMI 1640 10% FBS, supplemented with 0.1 g/l penicillin and 0.1 g/l streptomycin sulphate and then incubated at 37° C., 5% CO2 and 98% humidity. For the experiments, cells were harvested from subconfluent cultures using trypsin and resuspended in fresh medium before plating.
(§5) Cells are seeded in 96 well microtiter plates, at 5×10^3 cells per well in aliquots of 195 μl medium, and they are allowed to attach to the plate surface by growing in drug free medium for 18 hours. Afterward, samples are added in aliquots of 5 μl in a ranging from 10 to 10^−8 μg/ml, dissolved in DMSO/EtOH/PBS (0.5:0.5:99). After 48 hours exposure, the antitumor effect are measured by the SRB methodology: cells are fixed by adding 50 μl of cold 50% (wt/vol) trichloroacetic acid (TCA) and incubating for 60 minutes at 4° C. Plates are washed with deionized water and dried. One hundred μl of SRB solution (0.4% wt/vol in 1% acetic acid) is added to each microtiter well and incubated for 10 minutes at room temperature. Unbound SRB is removed by washing with 1% acetic acid. Plates are air dried and bound stain is solubilized with Tris buffer. Optical densities are read on a automated spectrophotometric plate reader at a single wavelength of 490 nm.
(§6) The values for mean +/−SD of data from triplicate wells are calculated. Some parameters for cellular responses can be calculated: GI=growth inhibition, TGI=total growth inhibition (cytostatic effect) and LC=cell killing (cytotoxic effect).

HeLa-APL = assay: Inhibition of cells growth by colorimetric (SRB) assay, HeLa-APL; details: for GI50 / CC50: Homo sapiens, 48 h; for GI50: read-out: HELA-APL GI50, SRB assay, 48 hours exposure; for CC50: read-out: HELA-APL LC50, SRB assay, 48 hours exposure; for HELA-APL TGI: SRB assay, 48 hours exposure
Description: as §2, §3, §4, §5, §6

PANC-1 = assay: Inhibition of cells growth by colorimetric (SRB) assay, PANC-1; details: for GI50 / CC50: Homo sapiens, PANC-1, 48 h; for GI50: read-out: PANC-1 GI50, SRB assay, 48 hours exposure; for CC50: read-out: PANC-1 LC50, SRB assay, 48 hours exposure; for PANC-1 TGI: SRB assay, 48 hours exposure
Outline: as §1

[1] = read-out: A-549 GI50, SRB assay, 48 hours exposure
[2] = read-out: A-549 LC50, SRB assay, 48 hours exposure
[3] = read-out: HT-29 GI50, SRB assay, 48 hours exposure
[4] = read-out: HT-29 LC50, SRB assay, 48 hours exposure

- GI50 (K-562): 13.7 µM
- GI50 (A-549; [1]): 11.3 µM
- GI50 (A-549; read-out: GI50 A-549, SRB assay, 48 hours exposure): 4.41 µM
- GI50 (SK-MEL-28): 5.46 µM
- GI50 (HT-29; read-out: GI50 HT-29, SRB assay, 48 hours exposure): ≥ 29.4 µM
- GI50 (HT-29; [3]): 14.6 µM
- GI50 (LoVo): 14.4 µM
- GI50 (LoVo-Dox): 10.1 µM
- GI50 (DU-145): 29.4 µM
- GI50 (LNCaP): 4.76 µM
- GI50 (SK-BR-3): 2.08 µM
- GI50 (HeLa): 0.00896 µM
- GI50 (HeLa-APL): 0.013 µM
- GI50 (PANC-1): 12.3 µM
Structure (SMILES): CS(=O)(=O)c1nccc(-c2c3cccnc3n3c(N)nccc23)n1 [Compound 73]
- CC50 (K-562): 29.4 µM
- K-562 TGI (K-562): 2.94E−05
- CC50 (A-549; [2]): 29.4 µM
- CC50 (A-549; read-out: LC50 A-549, SRB assay, 48 hours exposure): ≥ 147 µM
- A-549 TGI (A-549; SRB assay, 48 hours exposure): 2.94E−05
- TGI A-549 (A-549; SRB assay, 48 hours exposure): 1.47E−04
- CC50 (SK-MEL-28): 29.4 µM
- MEL-28 TGI (SK-MEL-28): 2.94E−05
- CC50 (HT-29; [4]): 29.4 µM
- CC50 (HT-29; read-out: LC50 HT-29, SRB assay, 48 hours exposure): ≥ 147 µM
- HT-29 TGI (HT-29; SRB assay, 48 hours exposure): 2.94E−05
- TGI HT-29 (HT-29; SRB assay, 48 hours exposure): 1.47E−04
- CC50 (LoVo): 29.4 µM
- LOVO TGI (LoVo): 2.94E−05
- CC50 (LoVo-Dox): 29.4 µM
- LOVO-DOX TGI (LoVo-Dox): 2.94E−05
- CC50 (DU-145): 29.4 µM
- DU-145 TGI (DU-145): 2.94E−05
- CC50 (LNCaP): 29.4 µM
- LN-caP TGI (LNCaP): 1.51E−05
- CC50 (SK-BR-3): 29.4 µM
- SK-BR-3 TGI (SK-BR-3): 9.37E−06
- GI50 (IGROV-1): 5.41 µM
- CC50 (IGROV-1): 29.4 µM
- IGROV TGI (IGROV-1): 2.94E−05
- GI50 (IGROV-ET): 2.05 µM
- CC50 (IGROV-ET): 29.4 µM
- IGROV-ET TGI (IGROV-ET): 2.94E−05
- HELA TGI (HeLa): 3.58E−08
- CC50 (HeLa-APL): 7.23 µM
- HELA-APL TGI (HeLa-APL): 7.23E−08
- CC50 (PANC-1): 29.4 µM
- PANC-1 TGI (PANC-1): 2.94E−05

- GI50 (K-562): 4.72 µM
- GI50 (A-549; [1]): 7.31 µM
- GI50 (SK-MEL-28): 4.97 µM
- GI50 (HT-29; [3]): 4.41 µM
- GI50 (LoVo): 5.11 µM
- GI50 (LoVo-Dox): 3.1 µM
- GI50 (DU-145): 4.27 µM
- GI50 (LNCaP): 3.49 µM
- GI50 (SK-BR-3): 1.34 µM
- GI50 (HeLa): 0.0449 µM
- GI50 (HeLa-APL): 0.0569 µM
- GI50 (PANC-1): 6.53 µM
Structure (SMILES): CSc1nccc(-c2c3cc4ccccc4nc3n3c(N)nccc23)n1 [Compound 18a]
- CC50 (K-562): ≥ 27.9 µM
- K-562 TGI (K-562): 1.66E−05
- CC50 (A-549; [2]): ≥ 27.9 µM
- A-549 TGI (A-549; SRB assay, 48 hours exposure): 1.66E−05
- CC50 (SK-MEL-28): ≥ 27.9 µM
- MEL-28 TGI (SK-MEL-28): 1.20E−05
- CC50 (HT-29; [4]): ≥ 27.9 µM
- HT-29 TGI (HT-29; SRB assay, 48 hours exposure): 1.67E−05
- CC50 (LoVo): 17 µM
- LOVO TGI (LoVo): 9.32E−06
- CC50 (LoVo-Dox): ≥ 27.9 µM
- LOVO-DOX TGI (LoVo-Dox): 9.74E−06
- CC50 (DU-145): 23.3 µM
- DU-145 TGI (DU-145): 9.99E−06
- CC50 (LNCaP): 15.3 µM
- LN-caP TGI (LNCaP): 7.31E−06
- CC50 (SK-BR-3): ≥ 27.9 µM
- SK-BR-3 TGI (SK-BR-3): 4.94E−06
- GI50 (IGROV-1): 5.47 µM
- CC50 (IGROV-1): ≥ 27.9 µM
- IGROV TGI (IGROV-1): 1.33E−05
- GI50 (IGROV-ET): 7.06 µM
- CC50 (IGROV-ET): ≥ 27.9 µM
- IGROV-ET TGI (IGROV-ET): 1.53E−05
- HELA TGI (HeLa): 3.68E−06
- CC50 (HeLa-APL): 6.56 µM
- HELA-APL TGI (HeLa-APL): 8.31E−07
- CC50 (PANC-1): ≥ 27.9 µM
- PANC-1 TGI (PANC-1): 1.46E−05
